From ChEMBL document CHEMBL1201862, “PubChem BioAssay data set” (2004)
Active and inactive are the calls of the source.

Key:
[1] = molecular target: T1, Corticotropin-releasing factor receptor 2/Corticotropin-releasing factor-binding protein (Homo sapiens, UniProt P24387+Q13324); experiment: Dose Response confirmation of uHTS hits for small molecule antagonists of the CRF-binding protein and CRF-R2 receptor complex.; format: functional; details: read-out: IC50_Mean
T1 sequence (Q13324 whole entry): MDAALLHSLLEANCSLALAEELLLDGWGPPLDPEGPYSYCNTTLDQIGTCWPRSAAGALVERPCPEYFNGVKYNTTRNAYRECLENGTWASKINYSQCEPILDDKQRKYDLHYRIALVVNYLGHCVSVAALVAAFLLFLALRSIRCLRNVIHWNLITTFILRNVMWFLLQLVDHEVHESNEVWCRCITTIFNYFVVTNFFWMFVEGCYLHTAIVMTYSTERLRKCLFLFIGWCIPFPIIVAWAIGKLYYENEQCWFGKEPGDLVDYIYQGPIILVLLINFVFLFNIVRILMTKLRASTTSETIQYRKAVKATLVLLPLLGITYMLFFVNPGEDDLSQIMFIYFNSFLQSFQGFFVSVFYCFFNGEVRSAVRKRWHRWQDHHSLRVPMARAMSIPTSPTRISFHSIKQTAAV
T1 sequence (P24387 whole entry): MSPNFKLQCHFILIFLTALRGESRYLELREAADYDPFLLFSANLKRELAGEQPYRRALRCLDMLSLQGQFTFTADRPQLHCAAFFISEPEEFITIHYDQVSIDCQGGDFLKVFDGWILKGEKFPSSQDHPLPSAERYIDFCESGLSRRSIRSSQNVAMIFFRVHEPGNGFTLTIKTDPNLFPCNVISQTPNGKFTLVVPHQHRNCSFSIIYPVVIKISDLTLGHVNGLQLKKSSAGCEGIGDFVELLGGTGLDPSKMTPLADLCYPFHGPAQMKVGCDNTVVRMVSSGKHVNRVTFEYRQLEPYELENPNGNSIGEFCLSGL

[2] = molecular target: T1, Corticotropin-releasing factor receptor 2/Corticotropin-releasing factor-binding protein; experiment: activators of CRF receptor 2 with binding protein – uHTS hits, confirmation (AID 602473); format: functional; details: read-out: EC50_Mean
[3] = viability of PTEN-deleted HCT116 cells – cell-based, HCT116 PTEN knockout, dose response (AID 1047); format: functional;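 further: HCT116 colon tumor cells with PTEN knocked out; cells exposed to compound for 60 hours before readout; potency for loss of cell viability measured by luminescence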
[4] = viability of HCT116 lacking mutant beta-catenin – cell-based, human colon tumor, dose response (AID 1045); format: functional;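 further: HCT116 colon tumor cells with beta catenin knocked out; cells exposed to compound for 60 hours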
[5] = tested on: Streptococcus sp. 'group A'; experiment: Streptococcus pyogenes SK(-)GAS viability under kanamycin – luminescence, BacTiterGlo, confirmation, counter-screen for streptokinase expression inhibitor project, dose response (AID 1900); format: functional, organism-based
Streptokinase A = molecular target: T2, Streptokinase A (Streptococcus pyogenes serotype M1, UniProt P10520); experiment: viability-normalized secreted streptokinase activity reduction – plasminogen activation absorbance, OD405, dose response (AID 1914); format: functional, Streptococcus pyogenes M1 GAS;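 further: secreted streptokinase activity via plasminogen activation per viability signal from cell pellet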
T2 sequence (P10520 whole entry): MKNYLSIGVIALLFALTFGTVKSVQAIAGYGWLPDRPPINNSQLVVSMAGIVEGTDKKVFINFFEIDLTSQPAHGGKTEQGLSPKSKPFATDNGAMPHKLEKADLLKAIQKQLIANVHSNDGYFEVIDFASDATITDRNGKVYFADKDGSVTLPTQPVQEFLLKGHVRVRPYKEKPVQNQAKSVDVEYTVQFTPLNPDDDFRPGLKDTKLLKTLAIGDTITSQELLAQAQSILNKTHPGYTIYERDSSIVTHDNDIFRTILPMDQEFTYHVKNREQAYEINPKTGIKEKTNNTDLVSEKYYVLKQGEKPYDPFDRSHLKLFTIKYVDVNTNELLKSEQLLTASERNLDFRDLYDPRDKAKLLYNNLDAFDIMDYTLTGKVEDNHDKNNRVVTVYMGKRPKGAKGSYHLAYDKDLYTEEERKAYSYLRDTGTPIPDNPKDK

Streptococcus = experiment: GAS UMAA2166 growth inhibition – luminescence, BacTiterGlo, counter-screen for streptokinase expression inhibitor project, dose response (AID 1915); format: functional, organism-based;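 further: potency for reduction of bacterial viability or growth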
[6] = molecular target: T3, Heat shock factor protein 1 (Mus musculus, UniProt P38532); experiment: enhancement of HSF1-driven luciferase signal – cell-based, NIH3T3, luminescence, dose retest, confirmation (AID 435004); format: functional;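 further: stress induced by proteasome inhibitor MG132 added 30 min after compound; luciferase reporter driven by HSF1 response element in NIH3T3 cells; actives raise luminescence as potentiators of the MG132 stress response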
T3 sequence (P38532 whole entry): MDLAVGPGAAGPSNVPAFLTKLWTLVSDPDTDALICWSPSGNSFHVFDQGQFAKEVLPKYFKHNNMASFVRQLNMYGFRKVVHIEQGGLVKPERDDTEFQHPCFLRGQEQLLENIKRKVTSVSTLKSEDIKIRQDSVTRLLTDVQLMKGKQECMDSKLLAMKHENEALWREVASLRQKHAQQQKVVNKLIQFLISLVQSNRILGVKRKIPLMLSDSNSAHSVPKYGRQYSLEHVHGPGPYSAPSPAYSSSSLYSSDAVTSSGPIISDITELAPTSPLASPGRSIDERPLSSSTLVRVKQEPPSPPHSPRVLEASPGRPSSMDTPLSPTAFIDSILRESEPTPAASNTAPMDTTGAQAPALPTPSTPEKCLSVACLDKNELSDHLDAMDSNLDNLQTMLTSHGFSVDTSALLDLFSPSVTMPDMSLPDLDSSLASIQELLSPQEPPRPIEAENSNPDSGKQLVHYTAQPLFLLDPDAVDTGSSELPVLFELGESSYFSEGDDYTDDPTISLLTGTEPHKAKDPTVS

Cytochrome P450 2C9 = Cytochrome P450 2C9 (Homo sapiens, UniProt P11712)
[7] = NIH-3T3 fibroblast cytotoxicity, dose response, cytotoxicity control, cell-based, fluorescence, Alamar Blue, secondary assay (AID 2327); format: functional;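 further: NIH-3T3 mouse fibroblasts cultured with fluconazole at 8 µg/mL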
[8] = viability of uninfected HEp-2 cells – cell-based, HTS, cytotoxicity control for RSV inhibitor project, dose response (AID 2410); format: functional; details: human respiratory syncytial virus
[9] = molecular target: T4, Replicative DNA helicase DnaB (Mycobacterium tuberculosis, UniProt P9WMR3); experiment: DnaB intein splicing inhibitors, dose response, biochemical, cell-free fluorescence (AID 449749); format: functional
T4 sequence (P9WMR3 whole entry): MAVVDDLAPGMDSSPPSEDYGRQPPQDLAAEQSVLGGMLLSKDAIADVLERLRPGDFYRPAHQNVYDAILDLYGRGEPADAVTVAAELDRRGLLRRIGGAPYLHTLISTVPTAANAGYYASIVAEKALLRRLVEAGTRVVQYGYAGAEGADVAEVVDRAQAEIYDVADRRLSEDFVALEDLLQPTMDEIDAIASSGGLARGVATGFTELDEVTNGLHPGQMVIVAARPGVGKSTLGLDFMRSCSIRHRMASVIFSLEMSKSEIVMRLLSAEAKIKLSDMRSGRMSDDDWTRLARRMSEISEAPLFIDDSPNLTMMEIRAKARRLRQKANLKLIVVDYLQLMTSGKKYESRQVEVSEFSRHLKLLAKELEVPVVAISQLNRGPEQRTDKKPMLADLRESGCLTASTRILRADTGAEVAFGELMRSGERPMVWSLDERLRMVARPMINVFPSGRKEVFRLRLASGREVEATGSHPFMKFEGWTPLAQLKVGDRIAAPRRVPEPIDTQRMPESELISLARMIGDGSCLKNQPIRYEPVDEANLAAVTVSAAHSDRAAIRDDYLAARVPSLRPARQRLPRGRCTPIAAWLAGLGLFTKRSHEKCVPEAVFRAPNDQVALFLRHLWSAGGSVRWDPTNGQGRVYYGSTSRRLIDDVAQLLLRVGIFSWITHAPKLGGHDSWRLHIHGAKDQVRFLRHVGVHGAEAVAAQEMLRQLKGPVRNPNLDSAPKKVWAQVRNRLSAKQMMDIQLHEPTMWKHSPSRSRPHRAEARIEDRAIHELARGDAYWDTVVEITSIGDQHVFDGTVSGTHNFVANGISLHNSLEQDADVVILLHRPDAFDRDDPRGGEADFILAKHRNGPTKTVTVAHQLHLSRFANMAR

Protein RecA = molecular target: T5, Protein RecA (Mycobacterium tuberculosis, UniProt P9WHJ3); experiment: Fluorescence Cell-Free Homogeneous Dose Retest to Identify Inhibitors of RecA-Intein Splicing Activity. [Related pubchem assays (depositor defined):AID2097, AID2223, AID489010, AID492950]; format: functional
T5 sequence (P9WHJ3 whole entry): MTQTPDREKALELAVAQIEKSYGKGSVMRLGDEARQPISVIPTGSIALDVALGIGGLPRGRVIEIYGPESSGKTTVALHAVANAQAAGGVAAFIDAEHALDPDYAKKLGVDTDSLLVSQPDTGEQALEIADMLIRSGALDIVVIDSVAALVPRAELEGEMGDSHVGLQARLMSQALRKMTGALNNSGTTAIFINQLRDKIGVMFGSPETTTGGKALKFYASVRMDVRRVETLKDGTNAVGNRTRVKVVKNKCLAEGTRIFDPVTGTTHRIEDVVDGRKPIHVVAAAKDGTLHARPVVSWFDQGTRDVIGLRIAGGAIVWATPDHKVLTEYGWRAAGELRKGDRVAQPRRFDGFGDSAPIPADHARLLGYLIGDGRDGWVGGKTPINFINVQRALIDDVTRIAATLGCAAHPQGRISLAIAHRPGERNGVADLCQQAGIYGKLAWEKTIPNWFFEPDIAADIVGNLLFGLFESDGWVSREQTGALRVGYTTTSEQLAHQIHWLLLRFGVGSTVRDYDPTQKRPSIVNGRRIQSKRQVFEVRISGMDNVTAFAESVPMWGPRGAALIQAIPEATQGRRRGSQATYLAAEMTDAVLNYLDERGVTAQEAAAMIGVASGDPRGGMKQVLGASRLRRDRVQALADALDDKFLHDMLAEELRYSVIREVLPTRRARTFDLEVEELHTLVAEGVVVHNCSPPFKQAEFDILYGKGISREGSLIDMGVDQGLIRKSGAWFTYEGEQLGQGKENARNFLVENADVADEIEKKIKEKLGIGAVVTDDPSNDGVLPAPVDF

[10] = fluconazole-exposed Candida albicans growth modulators – fluorescence, retest, confirmation (AID 2467); format: functional, cell-based

Cytochrome P450 2C9, sequence (P11712 whole entry): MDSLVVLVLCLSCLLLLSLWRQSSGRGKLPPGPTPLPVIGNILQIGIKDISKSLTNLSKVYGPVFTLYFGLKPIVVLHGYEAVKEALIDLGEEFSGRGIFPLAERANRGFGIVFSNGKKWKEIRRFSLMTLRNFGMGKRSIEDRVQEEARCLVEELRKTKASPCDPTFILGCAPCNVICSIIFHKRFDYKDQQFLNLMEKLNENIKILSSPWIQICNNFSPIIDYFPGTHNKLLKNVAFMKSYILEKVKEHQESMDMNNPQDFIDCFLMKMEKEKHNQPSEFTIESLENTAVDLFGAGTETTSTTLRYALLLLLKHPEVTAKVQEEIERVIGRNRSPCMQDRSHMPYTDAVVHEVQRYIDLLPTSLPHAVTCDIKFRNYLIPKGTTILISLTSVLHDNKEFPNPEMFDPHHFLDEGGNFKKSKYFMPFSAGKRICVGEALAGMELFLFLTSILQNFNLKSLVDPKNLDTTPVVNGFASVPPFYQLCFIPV

SMILES: COc1ccc(CCNC(=O)c2cccc3c2C(=O)N(C2CCCCC2)C3)cc1OC
- IC50 [1]: 5.54 µM (active)
- EC50 [2]: > 53 µM (inactive)

SMILES: COc1ccc(C(=O)ON=C(N)Cc2ccc(Cl)cc2)cc1OC
- EC50 [3]: 21.6 µM (active)
- EC50 [4]: 19.1 µM (active)

SMILES: Cc1nn(C)c(C)c1NC(=O)CSc1nc(C2CC2)nc2c1cnn2-c1ccccc1
- EC50 [3]: 5.78 µM (active)
- EC50 [4]: 10.8 µM (active)

SMILES: Cc1ccccc1N=C1N=C(S)N(c2ccccc2)C12CCCCC2
- IC50 [1]: > 47.1 µM (inactive)
- EC50 [2]: > 53 µM (inactive)

SMILES: CCC1C(=NO)C(CC)C(c2ccccc2)NC1c1ccccc1 (stereo not drawn)
- EC50 [5]: 4.07 µM (active)
- EC50 (Streptokinase A): 13.3 µM (active)
- EC50 (Streptococcus): 11.8 µM (active)
- EC50 [6]: > 260 µM (inactive)

SMILES: COc1ccc2c(c1)c(C(=O)O)c(C)n2-c1ccc(Cl)cc1
- IC50 [1]: > 47.1 µM (inactive)
- EC50 [2]: > 53 µM (inactive)

SMILES: CCn1c(S)nnc1CCNC(=O)c1ccccc1Cl
- IC50 [1]: > 47.1 µM (inactive)
- EC50 [2]: > 53 µM (inactive)
- AC50 (Cytochrome P450 2C9): 1.58 µM (inconclusive)

SMILES: Cc1ccc(Cn2nnc3c(O)nc(C4CCN(S(=O)(=O)c5ccc(C)cc5)CC4)nc32)cc1
- EC50 [7]: > 150 µM (inactive)
- CC50 [8]: 13.6 µM (active)

SMILES: Cc1sc2nc(CN(Cc3cccs3)C(=O)NC3CCCCC3)[nH]c(=O)c2c1C
- IC50 [1]: 16.4 µM (active)
- EC50 [2]: > 53 µM (inactive)

SMILES: CN(C)C(=O)c1ccc2c(c1[N+](=O)[O-])C(=O)c1ccccc1C2=O
- EC50 [3]: 87 µM (active)
- EC50 [4]: 105 µM (active)
- AC50 [9]: 57.9 µM (active)
- EC50 (Protein RecA): 558 nM (active)

SMILES: O=C(O)CC(SCC(=O)Nc1ccc(Br)cc1)C(=O)O (stereo not drawn)
- IC50 [1]: > 47.1 µM (inactive)
- EC50 [2]: > 53 µM (inactive)

SMILES: CC(C)c1noc2ncc(C(=O)c3cc(Cl)cc(Cl)c3O)cc12
- EC50 [7]: > 160 µM (inactive)
- EC50 [10]: 3.63 µM (active)

SMILES: Cc1noc(NS(=O)(=O)c2ccc(NC(=O)CS(=O)(=O)c3ccccc3)cc2)c1C
- IC50 [1]: > 47.1 µM (inactive)
- EC50 [2]: > 53 µM (inactive)

SMILES: CCOc1cc(-c2nc(-c3cc(OC)c(OC)c(OC)c3)no2)cc(OCC)c1OCC
- EC50 [7]: > 160 µM (inactive)
- EC50 [10]: > 38 µM (not active)

SMILES: C=CCSc1nc(-c2ccc(OCCC)cc2)n[nH]1
- EC50 [7]: > 150 µM (inactive)
- EC50 [10]: > 38 µM (not active)

SMILES: COc1ccc(NS(=O)(=O)c2ccc(N3CCOCC3)c(NC(=O)C(C)C)c2)cc1
- IC50 [1]: > 47.1 µM (inactive)
- EC50 [2]: > 53 µM (inactive)

SMILES: CCN(CC)C(=O)/C(=C/c1cn(S(=O)(=O)N(C)C)c2ccccc12)NC(=O)c1ccc(OC)cc1
- IC50 [1]: > 47.1 µM (inactive)
- EC50 [2]: > 53 µM (inactive)

SMILES: Clc1ccc(-n2nnnc2-c2cnc(-c3ccncc3)nc2-c2cccs2)cc1
- EC50 [3]: 16.9 µM (active)
- EC50 [4]: 21.1 µM (active)

SMILES: CC12CCC(C(=O)NNc3ccc([N+](=O)[O-])cc3)(CC1=O)C2(C)C (stereo not drawn)
- EC50 [7]: > 150 µM (inconclusive)
- EC50 [10]: > 38 µM (not active)

SMILES: COc1ccc(CCN=C(N)S)cc1OC
- IC50 [1]: > 47.1 µM (inactive)
- EC50 [2]: > 53 µM (inactive)

SMILES: CC1CCC(NC(=O)c2ccc(/C=C3\Oc4ccccc4N(C)C3=O)cc2)CC1 (stereo not drawn)
- EC50 [3]: 28 µM (active)
- EC50 [4]: 26.7 µM (active)

SMILES: CC(=O)NC1=NN(C(C)=O)C(C)(c2ccccn2)S1 (stereo not drawn)
- IC50 [1]: > 47.1 µM (inactive)
- EC50 [2]: > 53 µM (inactive)

SMILES: Cc1ccc(C(=O)C=Cc2cccc(C)c2)cc1
- IC50 [1]: > 47.1 µM (inactive)
- EC50 [2]: > 53 µM (inactive)

SMILES: CCCSC(=N)N/N=C/c1ccccc1O
- EC50 [3]: 34.7 µM (active)
- EC50 [4]: 32.4 µM (active)
